Results published in ChEMBL document CHEMBL4507329, “Data for DCP probe BTZO-1” (2021).

Assays:
[1] = target: Bone morphogenetic protein receptor type-1A (Homo sapiens) (UniProt P36894); conditions: Compound concentration 1000.0 nM
[2] = target: SNF-related serine/threonine-protein kinase (Homo sapiens) (UniProt Q9NRH2); conditions: Compound concentration 1000.0 nM
[3] = target: Calcium-dependent protein kinase 1 (Plasmodium falciparum) (UniProt P62344); conditions: Compound concentration 1000.0 nM
[4] = target: Tyrosine-protein kinase Fes/Fps (Homo sapiens) (UniProt P07332); conditions: Compound concentration 1000.0 nM
[5] = target: Calcium/calmodulin-dependent protein kinase kinase 2 (Homo sapiens) (UniProt Q96RR4); conditions: Compound concentration 1000.0 nM
[6] = target: Platelet-derived growth factor receptor alpha (Homo sapiens) (UniProt P16234); conditions: Compound concentration 1000.0 nM
[7] = target: Phosphatidylinositol 4-kinase beta (Homo sapiens) (UniProt Q9UBF8); conditions: Compound concentration 1000.0 nM
[8] = target: Beta-1 adrenergic receptor (Homo sapiens) (UniProt P08588); conditions: Compound concentration 10.0 uM
[9] = target: TRAF2 and NCK-interacting protein kinase (Homo sapiens) (UniProt Q9UKE5); conditions: Compound concentration 1000.0 nM
Sequence of TRAF2 and NCK-interacting protein kinase (Homo sapiens) (Q9UKE5 whole entry, looked up): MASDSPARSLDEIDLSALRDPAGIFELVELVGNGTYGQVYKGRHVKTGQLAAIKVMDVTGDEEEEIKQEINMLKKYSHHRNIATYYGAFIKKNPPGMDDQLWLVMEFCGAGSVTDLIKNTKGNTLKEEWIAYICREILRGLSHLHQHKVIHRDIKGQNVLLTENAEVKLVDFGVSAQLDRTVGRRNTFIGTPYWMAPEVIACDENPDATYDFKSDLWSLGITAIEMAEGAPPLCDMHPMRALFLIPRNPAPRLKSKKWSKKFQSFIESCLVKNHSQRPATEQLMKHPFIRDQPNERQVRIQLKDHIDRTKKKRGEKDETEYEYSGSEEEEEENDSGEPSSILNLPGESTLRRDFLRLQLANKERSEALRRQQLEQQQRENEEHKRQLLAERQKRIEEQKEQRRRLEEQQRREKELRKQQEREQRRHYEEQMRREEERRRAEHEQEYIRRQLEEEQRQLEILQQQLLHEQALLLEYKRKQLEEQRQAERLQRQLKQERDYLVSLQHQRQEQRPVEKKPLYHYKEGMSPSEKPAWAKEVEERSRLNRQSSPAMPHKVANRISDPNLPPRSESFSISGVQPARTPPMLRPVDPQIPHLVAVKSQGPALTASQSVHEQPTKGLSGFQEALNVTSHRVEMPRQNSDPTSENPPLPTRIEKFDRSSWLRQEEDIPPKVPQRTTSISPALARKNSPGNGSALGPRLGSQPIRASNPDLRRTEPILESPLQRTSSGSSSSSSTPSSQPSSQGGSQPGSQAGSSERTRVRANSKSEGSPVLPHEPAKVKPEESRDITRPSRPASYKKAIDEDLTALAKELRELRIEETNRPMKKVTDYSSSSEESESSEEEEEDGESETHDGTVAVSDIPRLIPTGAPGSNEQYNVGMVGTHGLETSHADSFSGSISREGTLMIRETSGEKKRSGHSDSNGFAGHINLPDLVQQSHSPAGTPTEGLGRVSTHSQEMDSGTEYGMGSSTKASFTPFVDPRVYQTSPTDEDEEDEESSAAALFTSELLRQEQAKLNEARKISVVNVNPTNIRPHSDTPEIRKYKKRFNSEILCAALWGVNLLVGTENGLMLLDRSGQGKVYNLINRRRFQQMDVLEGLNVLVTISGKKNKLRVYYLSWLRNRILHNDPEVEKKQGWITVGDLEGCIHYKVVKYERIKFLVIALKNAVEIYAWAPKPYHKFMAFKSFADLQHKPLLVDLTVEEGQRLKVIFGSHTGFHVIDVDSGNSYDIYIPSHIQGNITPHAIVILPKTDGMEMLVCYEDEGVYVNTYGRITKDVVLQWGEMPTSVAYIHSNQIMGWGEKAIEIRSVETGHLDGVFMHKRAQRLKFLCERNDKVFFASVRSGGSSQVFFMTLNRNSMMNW

[10] = target: Ribosomal protein S6 kinase alpha-1 (Homo sapiens) (UniProt Q15418); conditions: Compound concentration 1000.0 nM
[11] = target: Ephrin type-A receptor 4 (Homo sapiens) (UniProt P54764); conditions: Compound concentration 1000.0 nM
Sequence of Ephrin type-A receptor 4 (Homo sapiens) (P54764 whole entry): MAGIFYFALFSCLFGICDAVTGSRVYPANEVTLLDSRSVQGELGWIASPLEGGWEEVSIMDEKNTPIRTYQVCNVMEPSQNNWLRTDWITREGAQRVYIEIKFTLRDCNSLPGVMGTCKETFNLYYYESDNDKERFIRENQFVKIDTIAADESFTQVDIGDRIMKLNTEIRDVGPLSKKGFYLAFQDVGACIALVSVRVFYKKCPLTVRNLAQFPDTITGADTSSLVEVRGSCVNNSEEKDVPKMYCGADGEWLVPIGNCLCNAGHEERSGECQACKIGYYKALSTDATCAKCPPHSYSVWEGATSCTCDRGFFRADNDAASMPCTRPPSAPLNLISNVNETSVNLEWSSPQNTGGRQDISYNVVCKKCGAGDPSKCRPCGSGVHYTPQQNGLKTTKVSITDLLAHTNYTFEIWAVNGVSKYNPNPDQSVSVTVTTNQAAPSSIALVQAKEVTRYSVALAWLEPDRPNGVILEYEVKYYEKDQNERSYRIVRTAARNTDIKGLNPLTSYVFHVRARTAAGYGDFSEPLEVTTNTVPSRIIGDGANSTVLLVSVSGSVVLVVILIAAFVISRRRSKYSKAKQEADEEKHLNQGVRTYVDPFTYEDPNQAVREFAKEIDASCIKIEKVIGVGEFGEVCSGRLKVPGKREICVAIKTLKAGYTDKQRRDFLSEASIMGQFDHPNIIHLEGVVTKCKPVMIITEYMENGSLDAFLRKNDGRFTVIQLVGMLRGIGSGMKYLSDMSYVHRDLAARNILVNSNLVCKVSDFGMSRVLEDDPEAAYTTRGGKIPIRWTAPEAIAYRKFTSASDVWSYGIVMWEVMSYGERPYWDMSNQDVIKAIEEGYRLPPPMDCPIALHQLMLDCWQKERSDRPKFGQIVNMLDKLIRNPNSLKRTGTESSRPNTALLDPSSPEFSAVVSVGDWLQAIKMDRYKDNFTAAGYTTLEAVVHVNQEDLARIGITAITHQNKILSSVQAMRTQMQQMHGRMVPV

[12] = target: Beta-3 adrenergic receptor (Homo sapiens) (UniProt P13945); conditions: Compound concentration 10.0 uM
Sequence of Beta-3 adrenergic receptor (Homo sapiens) (P13945 whole entry, looked up): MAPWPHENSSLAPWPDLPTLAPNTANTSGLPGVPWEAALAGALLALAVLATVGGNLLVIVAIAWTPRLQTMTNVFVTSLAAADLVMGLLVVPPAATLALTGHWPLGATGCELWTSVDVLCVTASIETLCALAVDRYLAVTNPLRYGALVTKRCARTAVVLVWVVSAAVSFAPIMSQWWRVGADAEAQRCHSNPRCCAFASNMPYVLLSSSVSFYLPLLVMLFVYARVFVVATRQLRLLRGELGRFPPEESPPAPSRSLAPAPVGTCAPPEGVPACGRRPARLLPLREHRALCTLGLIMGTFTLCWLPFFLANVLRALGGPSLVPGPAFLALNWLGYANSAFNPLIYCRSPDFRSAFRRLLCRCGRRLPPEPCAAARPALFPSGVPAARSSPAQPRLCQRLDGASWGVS

[13] = target: Death-associated protein kinase 3 (Homo sapiens, UniProt O43293); conditions: Compound concentration 1000.0 nM
[14] = target: Tyrosine-protein kinase receptor TYRO3 (Homo sapiens) (UniProt Q06418); conditions: Compound concentration 1000.0 nM
[15] = target: Citron Rho-interacting kinase (Homo sapiens) (UniProt O14578); conditions: Compound concentration 1000.0 nM
[16] = system: Receptor-type tyrosine-protein kinase FLT3 (Homo sapiens), P36888 [D835V]; conditions: Compound concentration 1000.0 nM
[17] = target: Mitogen-activated protein kinase kinase kinase 20 (Homo sapiens) (UniProt Q9NYL2); conditions: Compound concentration 1000.0 nM
[18] = target: Wee1-like protein kinase 2 (Homo sapiens) (UniProt P0C1S8); conditions: Compound concentration 1000.0 nM
[19] = target: Dual serine/threonine and tyrosine protein kinase (Homo sapiens) (UniProt Q6XUX3); conditions: Compound concentration 1000.0 nM
[20] = target: Dual specificity mitogen-activated protein kinase kinase 2 (Homo sapiens) (UniProt P36507); conditions: Compound concentration 1000.0 nM
[21] = target: Cyclin-dependent kinase 19 (Homo sapiens) (UniProt Q9BWU1); conditions: Compound concentration 1000.0 nM
[22] = target: Dual specificity tyrosine-phosphorylation-regulated kinase 1B (Homo sapiens) (UniProt Q9Y463); conditions: Compound concentration 1000.0 nM
[23] = target: Mitogen-activated protein kinase 14 (Homo sapiens) (UniProt Q16539); conditions: Compound concentration 1000.0 nM
[24] = target: Serine/threonine-protein kinase 35 (Homo sapiens) (UniProt Q8TDR2); conditions: Compound concentration 1000.0 nM
[25] = target: Serine/threonine-protein kinase RIO1 (Homo sapiens) (UniProt Q9BRS2); conditions: Compound concentration 1000.0 nM
[26] = target: Serine/threonine-protein kinase DCLK1 (Homo sapiens) (UniProt O15075); conditions: Compound concentration 1000.0 nM
[27] = target: Ribosomal protein S6 kinase alpha-2 (Homo sapiens) (UniProt Q15349); conditions: Compound concentration 1000.0 nM
[28] = target: Receptor-interacting serine/threonine-protein kinase 2 (Homo sapiens) (UniProt O43353); conditions: Compound concentration 1000.0 nM
[29] = target: Casein kinase II subunit alpha (Homo sapiens) (UniProt P68400); conditions: Compound concentration 1000.0 nM
[30] = target: SRSF protein kinase 1 (Homo sapiens) (UniProt Q96SB4); conditions: Compound concentration 1000.0 nM
[31] = target: Serine/threonine-protein kinase 32A (Homo sapiens) (UniProt Q8WU08); conditions: Compound concentration 1000.0 nM
[32] = target: Hormonally up-regulated neu tumor-associated kinase (Homo sapiens) (UniProt P57058); conditions: Compound concentration 1000.0 nM
[33] = target: Bone morphogenetic protein receptor type-2 (Homo sapiens) (UniProt Q13873); conditions: Compound concentration 1000.0 nM
[34] = target: Mitogen-activated protein kinase 7 (Homo sapiens) (UniProt Q13164); conditions: Compound concentration 1000.0 nM
[35] = target: Ephrin type-A receptor 6 (Homo sapiens) (UniProt Q9UF33); conditions: Compound concentration 1000.0 nM
[36] = target: Insulin-like growth factor 1 receptor (Homo sapiens) (UniProt P08069); conditions: Compound concentration 1000.0 nM
Sequence of Insulin-like growth factor 1 receptor (Homo sapiens) (P08069 31-736 limits assumed): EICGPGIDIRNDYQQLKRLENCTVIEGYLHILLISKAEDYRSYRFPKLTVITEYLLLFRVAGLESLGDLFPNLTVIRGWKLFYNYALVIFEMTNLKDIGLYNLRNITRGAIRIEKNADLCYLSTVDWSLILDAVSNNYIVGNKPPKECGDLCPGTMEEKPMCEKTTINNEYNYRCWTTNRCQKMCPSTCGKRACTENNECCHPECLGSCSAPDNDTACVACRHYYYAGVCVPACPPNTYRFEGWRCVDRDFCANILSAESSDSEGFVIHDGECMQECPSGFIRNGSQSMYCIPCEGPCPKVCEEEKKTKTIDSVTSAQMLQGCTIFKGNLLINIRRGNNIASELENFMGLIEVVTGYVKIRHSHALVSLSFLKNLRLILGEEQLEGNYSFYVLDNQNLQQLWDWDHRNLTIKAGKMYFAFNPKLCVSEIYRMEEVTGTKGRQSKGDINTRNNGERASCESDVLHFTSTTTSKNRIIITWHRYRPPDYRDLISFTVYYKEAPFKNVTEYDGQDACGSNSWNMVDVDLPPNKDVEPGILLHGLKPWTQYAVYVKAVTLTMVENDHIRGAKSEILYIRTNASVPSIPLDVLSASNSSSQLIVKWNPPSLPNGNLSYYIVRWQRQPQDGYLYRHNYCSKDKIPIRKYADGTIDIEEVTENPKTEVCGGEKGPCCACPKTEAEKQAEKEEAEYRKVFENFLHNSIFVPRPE
Sequence of Insulin-like growth factor 1 receptor (Homo sapiens) (P08069 741-1367 limits assumed): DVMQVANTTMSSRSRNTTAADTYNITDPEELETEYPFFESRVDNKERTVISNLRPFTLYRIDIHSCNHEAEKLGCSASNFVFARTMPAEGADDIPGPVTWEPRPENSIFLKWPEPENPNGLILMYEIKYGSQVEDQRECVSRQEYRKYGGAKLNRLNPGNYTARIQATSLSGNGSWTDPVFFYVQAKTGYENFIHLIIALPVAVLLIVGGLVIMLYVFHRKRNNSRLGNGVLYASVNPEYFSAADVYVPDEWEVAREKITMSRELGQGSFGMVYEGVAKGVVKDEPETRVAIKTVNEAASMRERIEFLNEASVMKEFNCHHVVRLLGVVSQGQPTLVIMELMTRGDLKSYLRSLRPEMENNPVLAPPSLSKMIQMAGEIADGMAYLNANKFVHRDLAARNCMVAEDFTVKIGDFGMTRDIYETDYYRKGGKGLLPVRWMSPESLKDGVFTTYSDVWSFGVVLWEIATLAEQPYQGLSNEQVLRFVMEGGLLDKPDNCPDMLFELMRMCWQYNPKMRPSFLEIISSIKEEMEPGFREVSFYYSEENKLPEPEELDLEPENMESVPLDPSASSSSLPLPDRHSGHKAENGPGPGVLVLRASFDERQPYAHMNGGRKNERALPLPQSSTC

[37] = target: Muscle, skeletal receptor tyrosine-protein kinase (Homo sapiens) (UniProt O15146); conditions: Compound concentration 1000.0 nM
Sequence of Muscle, skeletal receptor tyrosine-protein kinase (Homo sapiens) (O15146 whole entry): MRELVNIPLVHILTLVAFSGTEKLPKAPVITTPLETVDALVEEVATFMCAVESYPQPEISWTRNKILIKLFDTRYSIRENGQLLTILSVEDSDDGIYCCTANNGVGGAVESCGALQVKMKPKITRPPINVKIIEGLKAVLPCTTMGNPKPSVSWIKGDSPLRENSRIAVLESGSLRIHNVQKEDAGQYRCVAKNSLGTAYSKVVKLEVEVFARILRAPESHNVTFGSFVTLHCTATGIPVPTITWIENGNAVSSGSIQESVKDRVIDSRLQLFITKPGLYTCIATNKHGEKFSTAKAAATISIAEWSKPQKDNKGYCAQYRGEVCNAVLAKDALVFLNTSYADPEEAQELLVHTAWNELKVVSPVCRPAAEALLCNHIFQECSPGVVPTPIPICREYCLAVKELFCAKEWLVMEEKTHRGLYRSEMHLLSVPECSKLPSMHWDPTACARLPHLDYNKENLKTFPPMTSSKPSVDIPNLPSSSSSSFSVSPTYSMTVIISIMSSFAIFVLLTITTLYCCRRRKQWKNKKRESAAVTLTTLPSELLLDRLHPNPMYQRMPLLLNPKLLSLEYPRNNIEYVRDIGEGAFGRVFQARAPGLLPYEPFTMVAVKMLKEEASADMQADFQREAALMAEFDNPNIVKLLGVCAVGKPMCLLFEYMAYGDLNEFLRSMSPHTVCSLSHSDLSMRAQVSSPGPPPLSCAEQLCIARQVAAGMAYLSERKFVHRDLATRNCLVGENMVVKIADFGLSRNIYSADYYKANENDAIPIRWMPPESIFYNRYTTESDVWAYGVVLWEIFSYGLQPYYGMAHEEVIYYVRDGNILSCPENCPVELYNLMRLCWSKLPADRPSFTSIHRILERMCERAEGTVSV

[38] = system: Proto-oncogene tyrosine-protein kinase receptor Ret (Homo sapiens), P07949 [M918T]; conditions: Compound concentration 1000.0 nM
[39] = target: Ribosomal protein S6 kinase alpha-3 (Homo sapiens) (UniProt P51812); conditions: Compound concentration 1000.0 nM
[40] = target: Protein kinase C iota type (Homo sapiens) (UniProt P41743); conditions: Compound concentration 1000.0 nM
[41] = system: Phosphatidylinositol 4,5-bisphosphate 3-kinase catalytic subunit alpha isoform (Homo sapiens), P42336 [M1043I]; conditions: Compound concentration 1000.0 nM
[42] = target: Dual specificity protein kinase CLK4 (Homo sapiens) (UniProt Q9HAZ1); conditions: Compound concentration 1000.0 nM
[43] = system: Proto-oncogene tyrosine-protein kinase receptor Ret (Homo sapiens), P07949 [V804M]; conditions: Compound concentration 1000.0 nM
[44] = target: Tyrosine-protein kinase Tec (Homo sapiens) (UniProt P42680); conditions: Compound concentration 1000.0 nM
[45] = target: Casein kinase I isoform delta (Homo sapiens) (UniProt P48730); conditions: Compound concentration 1000.0 nM

O=c1nc(-c2ccccn2)sc2ccccc12 [BTZO-1]
residual activity [1]: 100%
residual activity [2]: 100%
residual activity [3]: 77%
residual activity [4]: 100%
residual activity [5]: 90%
residual activity [6]: 89%
residual activity [7]: 71%
inhibition [8]: -8.56%
residual activity [9]: 83%
residual activity [10]: 100%
residual activity [11]: 100%
inhibition [12]: 20.1%
residual activity [13]: 91%
residual activity [14]: 80%
residual activity [15]: 100%
residual activity [16]: 100%
residual activity [17]: 87%
residual activity [18]: 100%
residual activity [19]: 88%
residual activity [20]: 89%
residual activity [21]: 86%
residual activity [22]: 100%
residual activity [23]: 94%
residual activity [24]: 79%
residual activity [25]: 85%
residual activity [26]: 90%
residual activity [27]: 100%
residual activity [28]: 82%
residual activity [29]: 68%
residual activity [30]: 83%
residual activity [31]: 100%
residual activity [32]: 81%
residual activity [33]: 100%
residual activity [34]: 100%
residual activity [35]: 100%
residual activity [36]: 80%
residual activity [37]: 100%
residual activity [38]: 81%
residual activity [39]: 88%
residual activity [40]: 100%
residual activity [41]: 100%
residual activity [42]: 90%
residual activity [43]: 100%
residual activity [44]: 82%
residual activity [45]: 81%

O=C1NC(c2ccccn2)Sc2ccccc21 (stereo not given) [BTZO-4]
residual activity [1]: 100%
residual activity [2]: 94%
residual activity [3]: 57%
residual activity [4]: 94%
residual activity [5]: 95%
residual activity [6]: 76%
residual activity [7]: 79%
inhibition [8]: -1.52%
residual activity [9]: 100%
residual activity [10]: 100%
residual activity [11]: 89%
inhibition [12]: 32.4%
residual activity [13]: 0%
residual activity [14]: 76%
residual activity [15]: 96%
residual activity [16]: 100%
residual activity [17]: 100%
residual activity [18]: 85%
residual activity [19]: 92%
residual activity [20]: 75%
residual activity [21]: 100%
residual activity [22]: 100%
residual activity [23]: 81%
residual activity [24]: 99%
residual activity [25]: 80%
residual activity [26]: 77%
residual activity [27]: 93%
residual activity [28]: 100%
residual activity [29]: 61%
residual activity [30]: 73%
residual activity [31]: 78%
residual activity [32]: 80%
residual activity [33]: 80%
residual activity [34]: 96%
residual activity [35]: 79%
residual activity [36]: 80%
residual activity [37]: 90%
residual activity [38]: 64%
residual activity [39]: 78%
residual activity [40]: 72%
residual activity [41]: 74%
residual activity [42]: 97%
residual activity [43]: 86%
residual activity [44]: 75%
residual activity [45]: 74%
